Entries after “also recorded” stand apart in the source; their conditions may differ.
How the values were obtained:
[1] = tested on: intestinal stricture associated with Crohn's disease; experiment: Effect of tranilast on progression of intestinal stricture in Crohn's disease patients, randomized against a group not given tranilast; format: in vivo, human (Crohn's disease patients)
Procedure: In 24 Crohn's disease patients with non-symptomatic intestinal stricture, the effect by tranilast on the progression of intestinal stricture associated with Crohn's disease was evaluated and compared between one group administered tranilast and another group not administered tranilast. There was no significant difference in backgrounds of the patients between the groups. The 24 patients were randomly divided into two groups consisting of a group administered tranilast (12 cases) and a group not administered tranilast (12 cases). […] The primary endpoint was a cumulative non-symptomatic stricture rate which was a rate of cases wherein severe symptomatic intestinal stricture requiring balloon dilatation or surgery occurred. In addition, the diameters of the stricture at the beginning of observation (basal diameter) and at the end of observation (final diameter) were measured. The secondary endpoint was a monthly progression rate of the stricture obtained from the rate of the final diameter relative to the basal diameter.

Crohn's disease = details: single case; tranilast with enteral nutrients, low residue diet and mepenzolate bromide; cited from earlier work

COc1ccc(C=CC(=O)Nc2ccccc2C(=O)O)cc1OC [tranilast, N-(3,4-dimethoxycinnamoyl)anthranilic acid]
monthly progression rate of the stricture ([1]; from the final diameter relative to the basal diameter, −0.86% in the group not given tranilast): -0.48%
average diameter of the stricture at the end of observation (final diameter) ([1]; group administered tranilast 200 mg three times daily, median observation 782 days): 5.60 mm
average diameter of the stricture at the beginning of observation (basal diameter) ([1]; group administered tranilast, baseline): 6.40 mm
cases withdrawn due to discontinued administration because of a reduced peripheral white blood cell count ([1]; of 12 cases, tranilast 200 mg three times daily): 1 case
number of cases who required balloon dilatation due to severe intestinal stricture ([1]; tranilast 200 mg three times daily orally, 12 cases, 5 cases in the group not given tranilast): 1 case
incidence of intestinal obstruction/stricture symptoms due to intestinal stricture (cumulative non-symptomatic stricture rate) ([1]; tranilast 600 mg per day versus the group not given tranilast, p=0.0034): significantly inhibited; also recorded: significantly low
period maintained without exacerbation of symptoms of Crohn's disease (Crohn's disease): 3 years
